Laboratory results published in US7977374B2, “Thiophene and thiazole substituted trifluoroethanone derivatives as histone deacetylase (HDAC) inhibitors” (Istituto Di Ricerche Di Biologia Molecolare P. Angeletti SPA, priority 2005, dated 2011).
pIC50: −log10 of the molar value. Where two headings read alike, the source gives them in different places.

What was measured:
Type in all cases: biochemical
HDAC 6 = target: T1, HDAC 6 (Homo sapiens, UniProt Q9UBN7); assay: HDAC 6 Assay
T1 construct: made in house
T1 sequence (Q9UBN7 1-1215): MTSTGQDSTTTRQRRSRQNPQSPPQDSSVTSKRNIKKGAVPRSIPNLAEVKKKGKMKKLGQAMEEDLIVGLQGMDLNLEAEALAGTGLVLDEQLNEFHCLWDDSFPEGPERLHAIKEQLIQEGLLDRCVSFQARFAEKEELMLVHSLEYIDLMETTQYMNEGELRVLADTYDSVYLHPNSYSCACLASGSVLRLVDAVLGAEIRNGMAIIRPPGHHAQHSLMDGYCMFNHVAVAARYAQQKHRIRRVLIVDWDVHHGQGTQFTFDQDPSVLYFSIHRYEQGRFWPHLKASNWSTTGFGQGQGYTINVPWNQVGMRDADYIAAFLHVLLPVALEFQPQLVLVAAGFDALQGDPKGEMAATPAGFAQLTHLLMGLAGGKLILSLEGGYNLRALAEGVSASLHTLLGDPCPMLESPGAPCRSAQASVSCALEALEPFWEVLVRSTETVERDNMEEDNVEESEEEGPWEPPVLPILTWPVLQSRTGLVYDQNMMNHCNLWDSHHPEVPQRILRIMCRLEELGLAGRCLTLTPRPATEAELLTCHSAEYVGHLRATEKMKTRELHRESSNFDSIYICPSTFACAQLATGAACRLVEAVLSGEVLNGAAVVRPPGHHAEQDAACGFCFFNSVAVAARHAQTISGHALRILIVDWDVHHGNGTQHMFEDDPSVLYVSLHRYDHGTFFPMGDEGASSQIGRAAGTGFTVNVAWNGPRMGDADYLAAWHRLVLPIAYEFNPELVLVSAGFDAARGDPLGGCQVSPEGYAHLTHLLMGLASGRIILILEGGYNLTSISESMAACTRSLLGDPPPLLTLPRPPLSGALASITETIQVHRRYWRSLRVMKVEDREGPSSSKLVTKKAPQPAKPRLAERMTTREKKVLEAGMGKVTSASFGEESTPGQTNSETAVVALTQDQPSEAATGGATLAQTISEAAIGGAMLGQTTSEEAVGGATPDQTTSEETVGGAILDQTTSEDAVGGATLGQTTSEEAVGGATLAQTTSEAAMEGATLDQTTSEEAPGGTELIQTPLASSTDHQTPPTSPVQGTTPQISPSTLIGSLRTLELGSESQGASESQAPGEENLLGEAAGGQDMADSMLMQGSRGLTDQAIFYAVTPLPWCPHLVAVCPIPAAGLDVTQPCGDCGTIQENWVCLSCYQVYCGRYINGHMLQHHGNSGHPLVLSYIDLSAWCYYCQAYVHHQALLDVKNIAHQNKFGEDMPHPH

HDAC 1 = HDAC 1 (Homo sapiens, UniProt Q13547); assay: HDAC1 activity, assays described on pages 104 to 106 of WO 2006/061638
HDAC 4 = target: T2, HDAC 4 (Homo sapiens, UniProt P56524); assay: HDAC 4 Assay
T2 construct: The His-tagged HDAC 4, wild-type catalytic domain, was expressed in E. coli; His tag; made in house; host or cells: E. coli BL21 Star (DE3)
T2 sequence (P56524 655-1084 limits assumed): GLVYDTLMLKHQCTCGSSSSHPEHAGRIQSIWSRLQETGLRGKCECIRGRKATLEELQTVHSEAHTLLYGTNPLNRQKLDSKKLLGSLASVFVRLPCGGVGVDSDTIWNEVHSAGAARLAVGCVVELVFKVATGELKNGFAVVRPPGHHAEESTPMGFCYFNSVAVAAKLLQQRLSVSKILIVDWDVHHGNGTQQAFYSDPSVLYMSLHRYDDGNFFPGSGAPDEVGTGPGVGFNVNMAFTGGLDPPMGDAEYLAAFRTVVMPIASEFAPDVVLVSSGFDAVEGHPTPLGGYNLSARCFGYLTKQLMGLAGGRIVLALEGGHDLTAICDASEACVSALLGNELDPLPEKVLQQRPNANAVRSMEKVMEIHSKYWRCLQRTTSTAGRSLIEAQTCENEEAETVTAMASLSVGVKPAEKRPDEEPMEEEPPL

Chain of HDAC 1 (Q13547 whole entry): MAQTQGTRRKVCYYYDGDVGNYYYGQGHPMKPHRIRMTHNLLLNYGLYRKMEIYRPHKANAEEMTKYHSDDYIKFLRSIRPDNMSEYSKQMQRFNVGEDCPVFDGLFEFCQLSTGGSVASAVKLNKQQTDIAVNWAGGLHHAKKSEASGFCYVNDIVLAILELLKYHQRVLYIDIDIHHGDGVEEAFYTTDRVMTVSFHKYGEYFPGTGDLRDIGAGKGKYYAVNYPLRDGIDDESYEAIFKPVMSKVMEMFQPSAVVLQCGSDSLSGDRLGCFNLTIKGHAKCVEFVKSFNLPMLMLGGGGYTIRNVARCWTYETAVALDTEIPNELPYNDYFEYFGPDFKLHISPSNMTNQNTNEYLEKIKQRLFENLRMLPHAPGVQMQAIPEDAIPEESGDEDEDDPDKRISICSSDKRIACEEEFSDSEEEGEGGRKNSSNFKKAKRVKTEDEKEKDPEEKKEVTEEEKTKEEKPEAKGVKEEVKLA

pIC50 (HDAC 6) | pIC50 (HDAC 1) | pIC50 (HDAC 4; read-out: HDAC 4 IC50) | inhibition at 1 µM (HDAC 4; @ 1000 nM, read-out: HDAC 4 % inh.) [%] | inhibition at 0.001 µM (HDAC 6; @ 1 nM, read-out: HDAC 6 % inh.) [%] | pIC50 (HDAC 4; not active up to the stated concentration, read-out: HDAC 4 IC50, Not active up to) | SMILES | selectivity for Class II HDAC (HDAC 4 and 6) over Class I (HDAC 1) (HDAC 4; HDAC 4 and 6 versus HDAC 1)
6.46 | 6.15 | 7.02 |  |  |  | C[C@@H](NC(=O)c1ccc(C(=O)C(F)(F)F)s1)c1ccccc1 [Example 8, N-[(1R)-1-phenylethyl]-5-(trifluoroacetyl)thiophene-2-carboxamide] | showed selectivity for Class II HDAC (HDAC 4 and 6) over Class I (HDAC 1)
 |  |  | 42 |  |  | CC(/C=C/C(=O)NO)=C\[C@@H](C)C(=O)c1ccc(N(C)C)cc1 [TSA, trichostatin A] | 
 | 8.22 |  |  | 50 | < 6.00 | C[C@@H](NC(=O)c1ccc(C(=O)NO)s1)c1ccccc1 [N-hydroxy-N′-[(1R)-1-phenytethyl]thiophene-2,5-dicarboxamide] | 
